Measured values published in patent US9193733B2, “Piperidinylcyclobutyl substituted pyrrolopyridine and pyrrolopyrimidine derivatives as JAK inhibitors” (Incyte Corporation, priority 2012, dated 2015).

How the values were obtained:
Assay type in all cases: biochemical
[1] = molecular target: T1, human JAK2 (a.a. 828-1132) catalytic domain (Homo sapiens, UniProt O60674); test: In vitro JAK kinase assay (HTRF, phosphorylation of a biotinylated peptide), JAK2; conditions: 1 mM ATP
T1 construct: human JAK1 (a.a. 837-1142) and JAK2 (a.a. 828-1132); His tag (N); made in house; host or cells: insect cells (baculovirus)
Procedure: (§1) Compounds herein were tested for inhibitory activity of JAK targets according to the following in vitro assay described in Park et al., Analytical Biochemistry 1999, 269, 94-104. The catalytic domains of human JAK1 (a.a. 837-1142) and JAK2 (a.a. 828-1132) with an N-terminal His tag were expressed using baculovirus in insect cells and purified. The catalytic activity of JAK1 and JAK2 was assayed by measuring the phosphorylation of a biotinylated peptide. The phosphorylated peptide was detected by homogenous time resolved fluorescence (HTRF). IC50s of compounds were measured for each kinase in the 40 microL reactions that contain the enzyme, ATP and 500 nM peptide in 50 mM Tris (pH 7.8) buffer with 100 mM NaCl, 5 mM DTT, and 0.1 mg/mL (0.01%) BSA. For the 1 mM IC50 measurements, ATP concentration in the reactions was 1 mM. Reactions were carried out at room temperature for 1 hour and then stopped with 20 μL 45 mM EDTA, 300 nM SA-APC, 6 nM Eu-Py20 in assay buffer (Perkin Elmer, Boston, Mass.). Binding to the Europium labeled antibody took place for 40 minutes and HTRF signal was measured on a Fusion plate reader (Perkin Elmer, Boston, Mass.). See Table A for data related to compounds of the Examples (at 1 mM). Data is indicated as ranges: <20 nM (+), 20 to <150 nM (++), 150 to 500 nM (+++).

[2] = molecular target: T2, human JAK1 (a.a. 837-1142) catalytic domain (Homo sapiens, UniProt P23458); test: In vitro JAK kinase assay (HTRF, phosphorylation of a biotinylated peptide), JAK1; conditions: 1 mM ATP
T2 construct: human JAK1 (a.a. 837-1142) and JAK2 (a.a. 828-1132); His tag (N); made in house; host or cells: insect cells (baculovirus)
Procedure: as §1

[3] = tested on: human JAK1 (a.a. 837-1142) catalytic domain; test: as above; conditions: ratio of JAK2 IC50 to JAK1 IC50, 1 mM ATP
Procedure: as §1

T2 sequence (P23458 849-1154): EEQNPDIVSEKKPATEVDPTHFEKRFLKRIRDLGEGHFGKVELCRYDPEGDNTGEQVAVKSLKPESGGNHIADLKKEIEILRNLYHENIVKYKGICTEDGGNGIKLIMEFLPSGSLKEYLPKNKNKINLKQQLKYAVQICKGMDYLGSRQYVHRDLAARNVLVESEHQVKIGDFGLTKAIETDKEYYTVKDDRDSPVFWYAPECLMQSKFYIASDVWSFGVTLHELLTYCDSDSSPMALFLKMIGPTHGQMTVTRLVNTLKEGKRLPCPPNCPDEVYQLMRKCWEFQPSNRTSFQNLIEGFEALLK
T1 sequence (O60674 828-1132): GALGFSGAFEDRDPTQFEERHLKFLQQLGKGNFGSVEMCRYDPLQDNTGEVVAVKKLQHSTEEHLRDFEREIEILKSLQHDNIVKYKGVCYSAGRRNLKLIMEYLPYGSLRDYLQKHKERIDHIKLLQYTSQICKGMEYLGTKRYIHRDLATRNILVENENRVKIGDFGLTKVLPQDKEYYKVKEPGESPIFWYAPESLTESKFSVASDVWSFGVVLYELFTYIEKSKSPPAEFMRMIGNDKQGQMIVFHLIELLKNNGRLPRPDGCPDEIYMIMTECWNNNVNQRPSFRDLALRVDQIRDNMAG

Structure (SMILES)	IC50 [1] [nM]	IC50 [2] [nM]	JAK2/JAK1 [3]
N#CC[C@]1(n2cc(-c3ncnc4[nH]ccc34)cn2)C[C@H](N2CCC(Oc3cc(CCO)cc(C(F)(F)F)n3)CC2)C1 [Example 20, {trans-3-(4-{[4-(2-hydroxyethyl)-6-(trifluoromethyl)pyridin-2-yl]oxy}piperidin-1-yl)-1-[4-(7H-pyrrolo[2,3-d]pyrimidin-4-yl)-1H-pyrazol-1-yl]cyclobutyl}acetonitrile]	20 to 150	< 20	>10
CN(CCO)Cc1cc(OC2CCN([C@H]3C[C@](CC#N)(n4cc(-c5ncnc6[nH]ccc56)cn4)C3)CC2)nc(C(F)(F)F)c1 [Example 17, {trans-3-(4-{[4-{[(2-hydroxyethyl)(methyl)amino]methyl}-6-(trifluoromethyl)pyridin-2-yl]oxy}piperidin-1-yl)-1-[4-(7H-pyrrolo[2,3-d]pyrimidin-4-yl)-1H-pyrazol-1-yl]cyclobutyl}acetonitrile]	20 to 150	< 20	>10
N#CC[C@]1(n2cc(-c3ncnc4[nH]ccc34)cn2)C[C@H](N2CCC(Nc3cc(CNCCO)cc(C(F)(F)F)n3)CC2)C1 [Example 33, {trans-3-(4-{[4-{[(2-hydroxyethyl)amino]methyl}-6-(trifluoromethyl)pyridin-2-yl]amino}piperidin-1-yl)-1-[4-(7H-pyrrolo[2,3-d]pyrimidin-4-yl)-1H-pyrazol-1-yl]cyclobutyl}acetonitrile]	20 to 150	< 20	>10
CN(Cc1cc(NC2CCN([C@H]3C[C@](CC#N)(n4cc(-c5ncnc6[nH]ccc56)cn4)C3)CC2)nc(C(F)(F)F)c1)C1CC1 [Example 37, {trans-3-(4-{[4-{[cyclopropyl(methyl)amino]methyl}-6-(trifluoromethyl)pyridin-2-yl]amino}piperidin-1-yl)-1-[4-(7H-pyrrolo[2,3-d]pyrimidin-4-yl)-1H-pyrazol-1-yl]cyclobutyl}acetonitrile]	150 to 500	< 20	>10
C[C@H](CO)NCc1cc(OC2CCN([C@H]3C[C@](CC#N)(n4cc(-c5ncnc6[nH]ccc56)cn4)C3)CC2)nc(C(F)(F)F)c1 [Example 2, {trans-3-(4-{[4-({[(1R)-2-hydroxy-1-methylethyl]amino}methyl)-6-(trifluoromethyl)pyridin-2-yl]oxy}piperidin-1-yl)-1-[4-(7H-pyrrolo[2,3-d]pyrimidin-4-yl)-1H-pyrazol-1-yl]cyclobutyl}acetonitrile]	20 to 150	< 20	>10

The remaining lines, values ahead:

IC50 [1] [nM]	IC50 [2] [nM]	JAK2/JAK1 [3]	Structure (SMILES)
150 to 500	< 20	>10	N#CC[C@]1(n2cc(-c3ccnc4[nH]ccc34)cn2)C[C@H](N2CCC(Oc3cc(CNCCO)cc(C(F)(F)F)n3)CC2)C1 [Example 21, {trans-3-(4-{[4-{[(2-hydroxyethyl)amino]methyl}-6-(trifluoromethyl)pyridin-2-yl]oxy}piperidin-1-yl)-1-[4-(1H-pyrrolo[2,3-b]pyridin-4-yl)-1H-pyrazol-1-yl]cyclobutyl}acetonitrile]
20 to 150	< 20	>10	N#CC[C@]1(n2cc(-c3ncnc4[nH]ccc34)cn2)C[C@H](N2CCC(Oc3cc(CNC4CCOCC4)cc(C(F)(F)F)n3)CC2)C1 [Example 5, [trans-1-[4-(7H-pyrrolo[2,3-d]pyrimidin-4-yl)-1H-pyrazol-1-yl]-3-(4-{[4-[(tetrahydro-2H-pyran-4-ylamino)methyl]-6-(trifluoromethyl)pyridin-2-yl]oxy}piperidin-1-yl)cyclobutyl]acetonitrile]
150 to 500	< 20	>10	N#CC[C@]1(n2cc(-c3ncnc4[nH]ccc34)cn2)C[C@H](N2CCC(Nc3cc(CN4CCC(F)(F)C4)cc(C(F)(F)F)n3)CC2)C1 [Example 36, {trans-3-(4-{[4-[(3,3-difluoropyrrolidin-1-yl)methyl]-6-(trifluoromethyl)pyridin-2-yl]amino}piperidin-1-yl)-1-[4-(7H-pyrrolo[2,3-d]pyrimidin-4-yl)-1H-pyrazol-1-yl]cyclobutyl}acetonitrile]
